Results published in paper PMC12281424, “A Rac-specific competitive inhibitor of guanine nucleotide binding reduces metastasis in triple-negative breast cancer” (Cell Reports Medicine, 2025).

What was measured:
White blood cell formula = format: in vivo, mouse
Description: Data S6. Formule white blood cell (% of leukocytes) in control and A41-treated mice (25
Control (n=5) A41 (n=5) p value

[1] = Ames fluctuation test (1st group); format: cell-based
Description: Data S3. Ames-fluctuation assay-A41.
Test Concentration Count Positive Significance Fisher Exact Test
(# of wells) (- to +++) (p-value)
Ames fluctuation test (TA100 + S9

Cyclooxygenase COX-2 = Cyclooxygenase COX-2 (Homo sapiens, UniProt P35354); assay: Safety screen; format: biochemical
Method: (§1) Blood cell counts, kinase profiler, safety screen, bacterial cytotoxicity, Ames, micronucleus assays were performed by the company Eurofins (France). The kinase profiler was performed by the company Eurofins (Discovery, Panlab and Cerep).

Monoamine Oxidase MAO-B = Monoamine Oxidase MAO-B (Homo sapiens, UniProt P27338); assay: Safety screen; format: biochemical
Method: (§2) Blood cell counts, kinase profiler, safety screen, bacterial cytotoxicity, Ames, micronucleus assays were performed by the company Eurofins (France).

[2] = molecular target: Peptidase, Angiotensin Converting Enzyme (Oryctolagus cuniculus, UniProt P12822); assay: Safety screen; format: biochemical, rabbit
Method: as §2

[3] = system: Calcium Channel L-Type, Phenylalkylamine; assay: Safety screen; format: binding, rat
[4] = molecular target: Cholecystokinin CCK2 (CCKB) (Homo sapiens, UniProt P32239); assay: Safety screen; format: binding
Method: as §2

Glutamate, NMDA, Glycine = assay: Safety screen; format: binding, rat
Method: as §1

Melanocortin MC4 = Melanocortin MC4 (Homo sapiens, UniProt P32245); assay: Safety screen; format: binding
Chain of Melanocortin MC4 (P32245 whole entry): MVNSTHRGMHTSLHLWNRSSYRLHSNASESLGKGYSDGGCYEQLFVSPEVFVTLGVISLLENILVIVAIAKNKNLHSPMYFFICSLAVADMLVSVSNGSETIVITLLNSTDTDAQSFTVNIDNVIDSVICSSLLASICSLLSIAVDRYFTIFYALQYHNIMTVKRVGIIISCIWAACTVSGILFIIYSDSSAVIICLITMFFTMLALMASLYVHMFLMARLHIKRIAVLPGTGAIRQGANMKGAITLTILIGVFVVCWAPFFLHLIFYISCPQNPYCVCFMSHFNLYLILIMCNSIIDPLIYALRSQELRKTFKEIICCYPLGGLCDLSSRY
Method: as §2

Nicotinic Acetylcholine = assay: Safety screen; format: binding, human
Method: as §2

Progesterone PR-B = Progesterone PR-B (Homo sapiens, UniProt P06401); assay: Safety screen; format: binding
Method: as §1

ALK(h) = ALK(h) (Homo sapiens, UniProt Q9UM73); assay: Kinase Profiler; format: biochemical
Method: (§3) The kinase profiler was performed by the company Eurofins (Discovery, Panlab and Cerep).

ALK4(h) = ALK4(h) (Homo sapiens, UniProt P36896); assay: Kinase Profiler; format: biochemical
Method: as §3

BRK(h) = BRK(h) (Homo sapiens, UniProt Q13882); assay: Kinase Profiler; format: biochemical
Method: as §1

CDK1/cyclinB(h) = CDK1/cyclinB(h) (Homo sapiens, UniProt P06493); assay: Kinase Profiler; format: biochemical
Method: as §1

CDK5/p25(h) = CDK5/p25(h) (Homo sapiens, UniProt Q00535); assay: Kinase Profiler; format: biochemical
Method: as §1

CK1(y) = assay: Kinase Profiler; format: biochemical, yeast
Method: as §3

cKit(D816H)(h) = cKit(D816H)(h) (Homo sapiens, UniProt P10721, D816H); assay: Kinase Profiler; format: biochemical
Chain of cKit(D816H)(h) (P10721 26-976 D816H): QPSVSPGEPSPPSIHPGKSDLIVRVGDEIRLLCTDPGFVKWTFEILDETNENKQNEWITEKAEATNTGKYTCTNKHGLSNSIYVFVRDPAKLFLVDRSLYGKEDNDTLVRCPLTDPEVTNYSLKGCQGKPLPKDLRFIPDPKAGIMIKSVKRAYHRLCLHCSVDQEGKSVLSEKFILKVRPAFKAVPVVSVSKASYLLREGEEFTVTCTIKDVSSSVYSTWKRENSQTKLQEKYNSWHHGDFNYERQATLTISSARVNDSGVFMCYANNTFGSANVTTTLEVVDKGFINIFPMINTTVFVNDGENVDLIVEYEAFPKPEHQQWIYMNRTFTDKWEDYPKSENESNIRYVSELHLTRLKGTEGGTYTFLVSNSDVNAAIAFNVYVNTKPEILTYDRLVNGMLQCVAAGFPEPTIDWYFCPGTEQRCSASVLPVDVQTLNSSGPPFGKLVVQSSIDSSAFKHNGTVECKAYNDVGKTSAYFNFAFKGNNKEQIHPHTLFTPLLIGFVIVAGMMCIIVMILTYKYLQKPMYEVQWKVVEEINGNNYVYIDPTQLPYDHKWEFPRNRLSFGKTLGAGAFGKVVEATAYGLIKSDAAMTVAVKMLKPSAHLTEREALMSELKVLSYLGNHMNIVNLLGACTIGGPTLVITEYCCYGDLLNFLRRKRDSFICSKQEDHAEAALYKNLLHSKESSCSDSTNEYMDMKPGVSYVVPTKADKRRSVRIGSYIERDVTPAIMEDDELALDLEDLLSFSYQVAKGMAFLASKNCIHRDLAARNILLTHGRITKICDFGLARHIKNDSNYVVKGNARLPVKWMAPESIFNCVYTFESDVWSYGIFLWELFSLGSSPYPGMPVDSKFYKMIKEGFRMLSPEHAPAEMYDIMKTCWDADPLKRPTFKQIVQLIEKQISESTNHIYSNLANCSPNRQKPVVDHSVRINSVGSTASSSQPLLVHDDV
Method: as §1

c-RAF(h) = c-RAF(h) (Homo sapiens, UniProt P04049); assay: Kinase Profiler; format: biochemical
Method: as §3

GRK2(h) = GRK2(h) (Homo sapiens, UniProt P25098); assay: Kinase Profiler; format: biochemical
Method: as §1

GRK5(h) = GRK5(h) (Homo sapiens, UniProt P34947); assay: Kinase Profiler; format: biochemical
Method: as §1

IRE1(h) = IRE1(h) (Homo sapiens, UniProt O75460); assay: Kinase Profiler; format: biochemical
Method: as §1

Itk(h) = Itk(h) (Homo sapiens, UniProt Q08881); assay: Kinase Profiler; format: biochemical
Method: as §3

LKB1(h) = LKB1(h) (Homo sapiens, UniProt Q15831); assay: Kinase Profiler; format: biochemical
Method: as §3

LRRK2(h) = LRRK2(h) (Homo sapiens, UniProt Q5S007); assay: Kinase Profiler; format: biochemical
Method: as §3

MKK4(m) = MKK4(m) (Mus musculus, UniProt P47809); assay: Kinase Profiler; format: biochemical
Method: as §3

PAK1(h) = PAK1(h) (Homo sapiens, UniProt Q13153); assay: Kinase Profiler; format: biochemical
Chain of PAK1(h) (Q13153 whole entry): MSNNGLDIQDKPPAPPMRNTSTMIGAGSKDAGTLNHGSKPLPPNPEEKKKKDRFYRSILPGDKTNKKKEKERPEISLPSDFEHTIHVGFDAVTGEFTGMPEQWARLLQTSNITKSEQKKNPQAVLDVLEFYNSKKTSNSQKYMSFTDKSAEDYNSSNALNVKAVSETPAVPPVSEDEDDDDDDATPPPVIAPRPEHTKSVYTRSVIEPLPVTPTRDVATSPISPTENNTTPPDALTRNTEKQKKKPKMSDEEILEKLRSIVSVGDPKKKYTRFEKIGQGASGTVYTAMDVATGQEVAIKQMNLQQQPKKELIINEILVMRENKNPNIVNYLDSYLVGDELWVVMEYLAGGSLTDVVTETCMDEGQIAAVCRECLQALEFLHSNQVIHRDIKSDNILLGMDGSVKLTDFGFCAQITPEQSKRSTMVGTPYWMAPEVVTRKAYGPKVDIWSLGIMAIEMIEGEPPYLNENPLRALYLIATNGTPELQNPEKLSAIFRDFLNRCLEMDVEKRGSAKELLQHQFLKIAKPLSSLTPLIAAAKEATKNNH
Method: as §1

PAK3(h) = PAK3(h) (Homo sapiens, UniProt O75914); assay: Kinase Profiler; format: biochemical
Method: as §3

Rsk3(h) = Rsk3(h) (Homo sapiens, UniProt Q15349); assay: Kinase Profiler; format: biochemical
Method: as §3

SRPK2(h) = SRPK2(h) (Homo sapiens, UniProt P78362); assay: Kinase Profiler; format: biochemical
Method: as §3

ULK1(h) = ULK1(h) (Homo sapiens, UniProt O75385); assay: Kinase Profiler; format: biochemical
Method: as §1

ULK3(h) = ULK3(h) (Homo sapiens, UniProt Q6PHR2); assay: Kinase Profiler; format: biochemical
Method: as §1

ATM(h) = ATM(h) (Homo sapiens, UniProt Q13315); assay: Kinase Profiler; format: biochemical
Chain of ATM(h) (Q13315 whole entry): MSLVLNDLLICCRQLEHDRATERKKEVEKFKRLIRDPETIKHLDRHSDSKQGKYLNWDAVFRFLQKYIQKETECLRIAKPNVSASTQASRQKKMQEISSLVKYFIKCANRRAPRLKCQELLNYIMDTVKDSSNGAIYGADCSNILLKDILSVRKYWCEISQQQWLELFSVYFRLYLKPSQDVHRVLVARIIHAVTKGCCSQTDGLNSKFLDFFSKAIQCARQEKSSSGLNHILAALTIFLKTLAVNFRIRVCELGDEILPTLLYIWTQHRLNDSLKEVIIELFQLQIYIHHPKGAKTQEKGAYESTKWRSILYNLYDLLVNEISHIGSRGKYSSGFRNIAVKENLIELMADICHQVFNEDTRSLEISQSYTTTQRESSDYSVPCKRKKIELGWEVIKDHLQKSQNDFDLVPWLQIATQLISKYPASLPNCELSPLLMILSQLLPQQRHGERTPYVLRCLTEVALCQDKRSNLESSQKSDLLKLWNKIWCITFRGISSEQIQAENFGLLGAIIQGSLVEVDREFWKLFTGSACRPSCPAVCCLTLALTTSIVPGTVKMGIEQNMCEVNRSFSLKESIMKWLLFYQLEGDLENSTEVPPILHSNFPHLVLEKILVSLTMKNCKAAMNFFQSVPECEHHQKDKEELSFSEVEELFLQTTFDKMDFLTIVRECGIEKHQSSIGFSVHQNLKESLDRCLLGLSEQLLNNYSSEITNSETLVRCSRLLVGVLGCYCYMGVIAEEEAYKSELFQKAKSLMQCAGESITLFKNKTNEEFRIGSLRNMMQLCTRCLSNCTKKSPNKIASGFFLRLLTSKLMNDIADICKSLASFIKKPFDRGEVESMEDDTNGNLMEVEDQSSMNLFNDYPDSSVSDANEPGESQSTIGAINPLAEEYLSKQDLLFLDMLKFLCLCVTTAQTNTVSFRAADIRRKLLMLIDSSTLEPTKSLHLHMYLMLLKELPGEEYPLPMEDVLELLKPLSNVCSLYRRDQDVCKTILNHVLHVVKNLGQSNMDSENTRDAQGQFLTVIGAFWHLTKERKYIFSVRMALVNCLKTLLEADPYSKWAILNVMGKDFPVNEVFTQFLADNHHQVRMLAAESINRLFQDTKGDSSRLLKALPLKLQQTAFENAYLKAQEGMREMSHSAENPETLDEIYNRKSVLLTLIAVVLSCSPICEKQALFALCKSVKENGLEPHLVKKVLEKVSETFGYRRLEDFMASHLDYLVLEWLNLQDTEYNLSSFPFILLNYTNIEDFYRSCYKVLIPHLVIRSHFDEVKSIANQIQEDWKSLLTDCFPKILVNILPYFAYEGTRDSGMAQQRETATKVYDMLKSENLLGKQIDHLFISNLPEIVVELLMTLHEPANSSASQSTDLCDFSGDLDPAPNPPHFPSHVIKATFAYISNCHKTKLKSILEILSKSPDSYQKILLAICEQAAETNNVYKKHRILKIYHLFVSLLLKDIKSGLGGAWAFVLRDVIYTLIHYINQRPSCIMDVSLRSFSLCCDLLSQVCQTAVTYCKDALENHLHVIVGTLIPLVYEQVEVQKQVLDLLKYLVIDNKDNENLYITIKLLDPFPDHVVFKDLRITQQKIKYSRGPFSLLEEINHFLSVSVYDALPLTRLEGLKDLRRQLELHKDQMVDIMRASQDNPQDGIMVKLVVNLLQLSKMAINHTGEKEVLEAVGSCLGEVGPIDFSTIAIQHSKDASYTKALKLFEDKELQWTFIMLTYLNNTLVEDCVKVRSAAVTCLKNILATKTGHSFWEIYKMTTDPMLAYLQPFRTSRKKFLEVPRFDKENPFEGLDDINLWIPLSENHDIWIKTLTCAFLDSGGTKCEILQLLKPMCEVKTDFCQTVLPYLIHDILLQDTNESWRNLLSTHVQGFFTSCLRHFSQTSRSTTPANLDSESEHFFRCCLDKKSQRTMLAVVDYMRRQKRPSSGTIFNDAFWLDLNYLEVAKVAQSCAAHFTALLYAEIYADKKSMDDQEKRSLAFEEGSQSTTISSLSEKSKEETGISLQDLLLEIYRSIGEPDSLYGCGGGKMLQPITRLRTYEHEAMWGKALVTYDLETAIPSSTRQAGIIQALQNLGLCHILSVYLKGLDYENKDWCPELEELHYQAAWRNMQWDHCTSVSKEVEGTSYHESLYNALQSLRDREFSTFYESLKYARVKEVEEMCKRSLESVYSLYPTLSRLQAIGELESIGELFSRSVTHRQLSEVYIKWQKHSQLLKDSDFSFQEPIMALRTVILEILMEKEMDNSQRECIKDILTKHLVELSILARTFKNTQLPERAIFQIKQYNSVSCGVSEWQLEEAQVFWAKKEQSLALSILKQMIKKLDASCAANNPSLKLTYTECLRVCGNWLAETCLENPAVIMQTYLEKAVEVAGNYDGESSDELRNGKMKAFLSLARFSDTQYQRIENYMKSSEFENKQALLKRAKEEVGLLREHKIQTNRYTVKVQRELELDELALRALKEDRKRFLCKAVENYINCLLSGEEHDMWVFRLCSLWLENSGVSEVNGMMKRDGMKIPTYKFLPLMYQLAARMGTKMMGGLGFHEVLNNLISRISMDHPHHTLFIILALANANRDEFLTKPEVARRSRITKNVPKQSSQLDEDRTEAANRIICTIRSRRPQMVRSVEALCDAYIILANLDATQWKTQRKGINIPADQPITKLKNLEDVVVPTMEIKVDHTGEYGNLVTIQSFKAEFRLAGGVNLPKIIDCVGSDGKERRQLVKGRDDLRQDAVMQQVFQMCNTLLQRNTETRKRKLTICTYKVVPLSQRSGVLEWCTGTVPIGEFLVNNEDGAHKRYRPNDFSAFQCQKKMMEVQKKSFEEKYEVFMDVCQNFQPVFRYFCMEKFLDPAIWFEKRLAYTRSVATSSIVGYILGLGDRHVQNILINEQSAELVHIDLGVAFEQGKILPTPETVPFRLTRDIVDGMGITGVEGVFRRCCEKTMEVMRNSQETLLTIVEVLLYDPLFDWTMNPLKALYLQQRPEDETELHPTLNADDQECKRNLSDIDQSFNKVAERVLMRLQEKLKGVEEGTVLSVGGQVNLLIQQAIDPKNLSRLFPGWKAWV
Method: as §3

CDC42 = CDC42 (Homo sapiens, UniProt P60953); assay: Surface plasmon resonance; format: binding; parameters: purchased Cytoskeleton CD01; settings: A41 0 to 25 μM
Chain of CDC42 (P60953 whole entry): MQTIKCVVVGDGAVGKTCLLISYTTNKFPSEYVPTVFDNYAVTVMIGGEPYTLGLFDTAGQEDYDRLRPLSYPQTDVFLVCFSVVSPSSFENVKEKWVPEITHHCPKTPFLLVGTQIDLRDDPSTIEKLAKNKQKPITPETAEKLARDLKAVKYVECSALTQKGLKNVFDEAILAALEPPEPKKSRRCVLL
Method: SPR immobilization was performed at 25°C. RAC1, RHOA and CDC42 purified proteins (respectively […] and CD01, Cytoskeleton) were diluted to 5 μg/mL in Na^+ acetate buffer (pH 5.0) and injected into sensor chip CM5 (GE Healthcare) in a Biacore T200 (GE Healthcare) that was activated with NHS/EDC buffer. Approximately 5,000 response units of the purified protein were immobilized on the biosensor chip. Biosensor chips were blocked by an injection of 1 mM ethanolamine (pH 8.5). SPR analysis was performed at 25°C in HBSEP running buffer (5% DMSO) with or without EDTA (20 mM). A41 compound was injected over the RAC1, RHOA or CDC42 functionalized surface in concentration range from 0 to 25μM. Association and dissociation phases were monitored during 60s and 300s, respectively.

For `COc1ccc(OC)c(NS(=O)(=O)c2ccc(NC(=O)CCSc3ccc(C)cc3)cc2)c1` [Compound A41], the “B cells, Mean (SD)” value (White blood cell formula; 25 mg/kg/d, n=5) was 11.62 (1.58) % of leukocytes, the “Macrophages, Mean (SD)” value (White blood cell formula; 25 mg/kg/d, n=5) was 2.46 (2.34) % of leukocytes and the “Monocytes, Mean (SD)” value (White blood cell formula; 25 mg/kg/d, n=5) was 0.86 (0.57) % of leukocytes. For the same molecule, the “NK cells, Mean (SD)” value (White blood cell formula; 25 mg/kg/d, n=5) was 0.40 (0.22) % of leukocytes, the “Neutrophiles, Mean (SD)” value (White blood cell formula; 25 mg/kg/d, n=5) was 4.19 (6.24) % of leukocytes and the “T cells, Mean (SD)” value (White blood cell formula; 25 mg/kg/d, n=5) was 52.20 (2.11) % of leukocytes. The “white cell blood counts” value (White blood cell formula; chronic A41 treatment, immunocompetent mice) was “not accompanied by changes in white cell blood counts”, the “Count Positive (# of wells)” value ([1]; 1.0E-04 M) was 1 and the “Count Positive (# of wells)” value ([1]; 1.0E-05 M) was 2. The “Count Positive (# of wells)” value ([1]; 5.0E-05 M) was 0, the “Count Positive (# of wells)” value ([1]; 5.0E-06 M) was 0 and the “% inh.” value (Cyclooxygenase COX-2) was 11%. The “% inh.” value (Monoamine Oxidase MAO-B) was 17%, the “% inh.” value [2] was 11% and the “% inh.” value [3] was 52%. The “% inh.” value [4] was 0%, the “% inh.” value (Glutamate, NMDA, Glycine) was 7% and the “% inh.” value (Melanocortin MC4) was 8%. For the same molecule, the “% inh.” value (Nicotinic Acetylcholine) was -3%, the “% inh.” value (Progesterone PR-B) was -16% and the “Activity(%)” value (ALK(h)) was 82%. The “Activity(%)” value (ALK4(h)) was 101%, the “Activity(%)” value (BRK(h)) was 107% and the “Activity(%)” value (CDK1/cyclinB(h)) was 96%. The “Activity(%)” value (CDK5/p25(h)) was 110%, the “Activity(%)” value (CK1(y)) was 98% and the “Activity(%)” value (cKit(D816H)(h)) was 109%. For the same molecule, the “Activity(%)” value (c-RAF(h)) was 93%, the “Activity(%)” value (GRK2(h)) was 96% and the “Activity(%)” value (GRK5(h)) was 101%. For the same molecule, the “Activity(%)” value (IRE1(h)) was 101%, the “Activity(%)” value (Itk(h)) was 78% and the “Activity(%)” value (LKB1(h)) was 107%. For the same molecule, the “Activity(%)” value (LRRK2(h)) was 111%, the “Activity(%)” value (MKK4(m)) was 109% and the “Activity(%)” value (PAK1(h)) was 115%. The “Activity(%)” value (PAK3(h)) was 107%, the “Activity(%)” value (Rsk3(h)) was 93% and the “Activity(%)” value (SRPK2(h)) was 96%. For the same molecule, the “Activity(%)” value (ULK1(h)) was 106%, the “Activity(%)” value (ULK3(h)) was 97% and the “Activity(%)” value (ATM(h)) was 114%. For the same molecule, the binding (CDC42) was “No binding was measured”.
